Drawing on patent publication US20230312530A1, “SALT OF RHO-ASSOCIATED PROTEIN KINASE INHIBITOR, SOLID FORM OF THE SALT, PREPARATION METHOD FOR SAME, AND USES THEREOF” (BEIJING TIDE PHARMACEUTICAL CO., LTD., priority 2020, published 2023), this text covers Cmax and AUC(0-t) for 1 compound.

The data set can be described thus: Pharmacokinetic test, single oral administration to beagle dogs. The class given is in vivo. The following applies: dog, blood, 20 mg/kg, once, 20 mpk, vehicle 0.5% CMC-Na. On the procedure: The crystalline form I of compound A monohydrochloride monohydrate and compound A (vehicles for both samples were 0.5% CMC-Na) were respectively orally administered once to two groups of beagle dogs at a dose of 20 mpk, and blood samples were collected before the administration (0 h) and at 0.25, 0.5, 1, 2, 4, 6, 8 and 24 hours after the administration. The samples were processed and subjected to a chromatographic analysis.

The structures appear in SMILES notation.

For `Cn1c(C(=O)N2CC(F)(F)C2)cc2ccc(-c3nccc(Nc4ccc(-c5cn[nH]c5)cc4)n3)cc21` [Compound A, (6-(4-((4-(1H-pyrazol-4-yl)phenyl)amino)pyrimidin-2-yl)-1-methyl-1H-indol-2-yl)(3,3-difluoroazetidin-1-yl)methanone], the Cmax worked out at 147 ng/mL. Where the note is “sampling to 24 hours”, this compound gave an AUC(0-t) of 522 ng·h/mL.

What is called Cmax is the highest concentration seen after dosing. By AUC(0-t) is commonly meant exposure summed from dosing to a finite time, without extrapolation to infinity.
